Measurements reported in PubChem BioAssay (NCI).
Where “and” joins values, the source holds several entries; their conditions need not be identical. Equal values may be shown once.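 Grown in 96-well plates, cells were treated for 48 hours with each compound at five concentrations. Insufficient inhibition: endpoint recorded as highest concentration tested. At the GI50, growth is halved. TGI: total growth inhibition.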

What was measured:
Assay in all cases: DTP human tumour cell line panel, 48 h
[1] = tested on: CCRF-CEM leukemia
[2] = tested on: COLO 205 colon
[3] = tested on: K-562 leukemia
[4] = tested on: MOLT-4 leukemia
[5] = tested on: NCI-H23 lung
[6] = tested on: SK-MEL-28 melanoma
[7] = tested on: SNB-19 CNS
[8] = tested on: SW-620 colon
[9] = tested on: NCI-H226 lung
[10] = tested on: SR leukemia

SMILES: COc1cc(C2C(C(=O)O)=C(COC(C)=O)Oc3cc4c(cc32)OCO4)cc(OC)c1OC(C)=O (stereo not given)
- TGI [1]: > 100 µM
- TGI [2]: > 100 µM
- TGI [3]: > 100 µM
- TGI [4]: > 100 µM
- TGI [5]: > 100 µM
- TGI [6]: > 100 µM
- TGI [7]: > 100 µM
- TGI [8]: > 100 µM

SMILES: COC(=O)c1nc(C(=O)OC)c2c([nH]c3ccccc32)c1C(=O)OC
- TGI [1]: > 100 µM
- TGI [2]: > 100 µM
- TGI [4]: > 100 µM
- TGI [9]: > 100 µM
- TGI [5]: > 100 µM
- TGI [6]: > 100 µM
- TGI [10]: > 100 µM
- TGI [8]: > 100 µM

SMILES: C=C1C(=O)OC2CC1C(OC(C)=O)C/C(C)=C/CC/C(C)=C\CCC2(C)O (stereo not given)
- GI50 [1]: 0.469 µM and 2.36 µM
- TGI [2]: 14.4 µM and > 100 µM
- TGI [4]: 6.23 µM and 7.81 µM
- TGI [9]: 12.1 µM and 34.2 µM
- GI50 [5]: 7.77 µM and 1.84 µM
- TGI [5]: 22.4 µM and 4.44 µM
- TGI [6]: 11.2 µM and 15.7 µM
- TGI [7]: 40.1 µM and 32 µM
- TGI [10]: 4.85 µM
- TGI [8]: 12.6 µM and 8.91 µM

SMILES: O=C(Cc1ccccc1)N/N=C(/c1nc2ccc([N+](=O)[O-])cc2[nH]c1=O)C(O)c1ccccc1Cl (stereo not given)
- TGI [1]: > 100 µM
- TGI [2]: > 100 µM
- TGI [3]: > 100 µM
- TGI [4]: > 100 µM
- TGI [9]: > 100 µM
- TGI [5]: > 100 µM
- TGI [6]: > 100 µM
- TGI [10]: > 100 µM
- TGI [8]: > 100 µM

SMILES: O=C1NC(=O)C2C1C1C=C3c4ccccc4N(c4ccccc4)C32[C@H]2C(=O)NC(=O)[C@@H]12 (stereo not given in full)
- TGI [1]: > 100 µM
- TGI [2]: > 100 µM
- TGI [3]: > 100 µM
- TGI [4]: > 100 µM
- TGI [9]: > 100 µM
- TGI [6]: > 100 µM
- TGI [7]: > 100 µM
- TGI [8]: > 100 µM

SMILES: CCc1nc2ccccc2c(=O)n1/N=C(\N=Nc1ccc(Cl)cc1)c1ccccc1
- TGI [1]: > 100 µM
- TGI [2]: > 100 µM
- TGI [4]: > 100 µM
- TGI [9]: 63.4 µM
- TGI [5]: > 100 µM
- TGI [6]: > 100 µM
- TGI [7]: 82.6 µM
- TGI [8]: > 100 µM

SMILES: CS(=N)(=O)CCC(N)P(=O)(O)O (stereo not given)
- TGI [2]: > 100 µM
- TGI [3]: > 100 µM
- TGI [4]: > 100 µM
- TGI [9]: > 100 µM
- TGI [5]: > 100 µM
- TGI [6]: > 100 µM
- TGI [7]: > 100 µM
- TGI [10]: > 100 µM
- TGI [8]: > 100 µM

SMILES: C#CCn1c(=O)c2cccnc2n(CC#C)c1=O
- TGI [1]: > 100 µM
- TGI [2]: > 100 µM
- TGI [4]: > 100 µM
- TGI [9]: > 100 µM
- TGI [5]: > 100 µM
- TGI [6]: > 100 µM
- TGI [7]: > 100 µM
- TGI [10]: > 100 µM
- TGI [8]: > 100 µM

SMILES: O=C(O)CCC1CCc2cccc(OCC(=O)O)c2C1=O (stereo not given)
- TGI [1]: > 100 µM
- TGI [2]: > 100 µM
- TGI [3]: > 100 µM
- TGI [4]: > 100 µM
- TGI [5]: > 100 µM
- TGI [6]: > 100 µM
- TGI [7]: > 100 µM
- TGI [8]: > 100 µM

SMILES: CC(C)(CN1CCCCC1)C(=O)CC(SCCN)c1ccc(Cl)cc1 (stereo not given)
- TGI [1]: 5.19 µM
- TGI [2]: 3.24 µM
- TGI [3]: > 100 µM
- TGI [4]: 4.72 µM
- TGI [9]: 10.1 µM
- TGI [5]: 5.8 µM
- TGI [6]: 13 µM
- TGI [7]: 4.54 µM
- TGI [8]: 3.94 µM

SMILES: O=C(O)CNCCc1ccccc1
- TGI [1]: > 100 µM
- TGI [2]: > 100 µM
- TGI [3]: > 100 µM
- TGI [9]: > 100 µM
- TGI [5]: > 100 µM
- TGI [6]: > 100 µM
- TGI [7]: > 100 µM
- TGI [10]: > 100 µM
- TGI [8]: > 100 µM

SMILES: C/C(=N\O)c1cccc(Nc2cc(-c3ccccc3)nc3c(O)cccc23)c1
- GI50 [1]: 2.13 µM
- TGI [1]: > 26.5 µM
- GI50 [2]: 10.6 µM
- TGI [2]: 26.7 µM
- GI50 [3]: 0.581 µM
- TGI [3]: > 53.5 µM
- GI50 [9]: 7.37 µM
- TGI [9]: 37.5 µM
- GI50 [5]: 4.2 µM
- TGI [5]: 20.2 µM
- GI50 [6]: 10.9 µM
- TGI [6]: 27.8 µM
- GI50 [7]: 1.13 µM
- TGI [7]: 9.42 µM
- GI50 [10]: 0.415 µM
- GI50 [8]: 0.751 µM
- TGI [8]: > 42.9 µM

SMILES: O=C(O)c1ccc(C(=O)O)c(C(=O)O)c1.[NH-]C1CCCCC1[NH-].[Pt+2]
- GI50 [1]: 0.858 µM and 4.49 µM
- TGI [1]: 66.8 µM
- GI50 [2]: 3.73 µM
- TGI [2]: 40.7 µM
- TGI [3]: 88.9 µM
- GI50 [4]: 0.5 µM and 4.84 µM
- TGI [4]: 20 µM
- GI50 [9]: 2.02 µM
- TGI [9]: 32.2 µM
- GI50 [5]: 4.87 µM
- TGI [5]: 38.4 µM
- GI50 [6]: 4.97 µM
- TGI [6]: 48.1 µM
- GI50 [7]: 11 µM
- TGI [7]: > 93.8 µM
- GI50 [8]: 0.43 µM
- TGI [8]: 57.9 µM

SMILES: Cn1c(=O)c2[nH]c(CCCc3ccc([N+](=O)[O-])cc3)nc2n(C)c1=O
- TGI [2]: > 100 µM
- TGI [3]: > 100 µM
- TGI [4]: > 100 µM
- TGI [9]: > 100 µM
- TGI [5]: > 100 µM
- TGI [6]: > 100 µM
- TGI [7]: > 100 µM
- TGI [10]: > 100 µM

SMILES: O=[N+]([O-])c1ccc(/C(Cl)=C/c2ccc(/C=C(\Cl)c3ccc([N+](=O)[O-])cc3[N+](=O)[O-])cc2)c([N+](=O)[O-])c1
- TGI [2]: > 100 µM
- TGI [4]: > 100 µM
- TGI [9]: > 100 µM
- TGI [5]: > 100 µM
- TGI [6]: > 100 µM
- TGI [10]: > 100 µM
- TGI [8]: > 100 µM

SMILES: O=C(/C=C/c1nnc2n(Cc3ccccc3)c(=O)c3c4c(sc3n12)CCCC4)c1ccccc1
- GI50 [1]: 0.328 µM and 0.205 µM
- TGI [1]: 4.69 µM and 0.699 µM
- GI50 [3]: 0.902 µM and 0.199 µM
- TGI [3]: > 100 µM
- GI50 [4]: 0.622 µM and 0.248 µM
- TGI [4]: 0.769 µM
- GI50 [5]: > 100 µM
- TGI [5]: > 100 µM
- GI50 [7]: > 100 µM
- TGI [7]: > 100 µM
- GI50 [10]: 0.0522 µM and 0.217 µM
- TGI [10]: 0.658 µM
- GI50 [8]: 3.14 µM

SMILES: CCOC(=O)[C@@H](C)C[C@H](Cc1ccccc1)NC(=O)c1csc([C@@H](C[C@H](C(C)C)N(C)C(=O)[C@@H](NC(=O)[C@H]2C[C@H](O)CCN2C)C(C)C)OC(C)=O)n1
- GI50 [1]: 0.00534 µM
- TGI [1]: > 16.7 µM
- GI50 [2]: < 0.00167 µM
- TGI [2]: 0.0143 µM
- GI50 [3]: 0.00252 µM
- TGI [3]: > 16.7 µM
- GI50 [4]: 0.00714 µM
- TGI [4]: > 16.7 µM
- GI50 [9]: 0.0105 µM
- TGI [9]: 0.34 µM
- GI50 [5]: 0.00763 µM
- TGI [5]: > 16.7 µM
- GI50 [7]: 0.00312 µM
- TGI [7]: > 16.7 µM
- GI50 [10]: < 0.00167 µM
- TGI [10]: > 16.7 µM
- GI50 [8]: 0.00417 µM
- TGI [8]: > 16.7 µM

SMILES: CC(=O)N(CCN1C(=O)c2ccccc2C1=O)CCN1C(=O)c2ccccc2C1=O
- TGI [1]: > 100 µM
- TGI [2]: > 100 µM
- TGI [3]: > 100 µM
- TGI [4]: > 100 µM
- TGI [5]: > 100 µM
- TGI [6]: > 100 µM
- TGI [7]: > 100 µM
- TGI [10]: > 100 µM
- TGI [8]: > 100 µM

SMILES: CCOC(=O)Nc1ccc2c(c1)N(C(=O)CCN(CC)CC)c1ccccc1S2
- GI50 [1]: 17 µM
- TGI [1]: > 91.2 µM and 66.9 µM
- GI50 [2]: 47 µM
- TGI [2]: 47.7 µM and 120 µM
- GI50 [3]: 19.7 µM
- TGI [3]: > 81.8 µM
- GI50 [4]: 13.7 µM
- TGI [4]: 71.1 µM and 44.3 µM
- GI50 [5]: 36.4 µM
- TGI [5]: > 90.5 µM and 114 µM
- GI50 [6]: 60.3 µM
- TGI [6]: 57.1 µM and 126 µM
- GI50 [7]: 13.5 µM
- TGI [7]: 41.1 µM
- TGI [10]: 43.4 µM
- GI50 [8]: 52.5 µM
- TGI [8]: 59.3 µM and 122 µM

SMILES: N#Cc1c2ccccc2c2nnc3ccccc3n12
- GI50 [2]: 9.32 µM
- TGI [2]: > 100 µM
- GI50 [3]: 81.9 µM
- TGI [3]: > 100 µM
- GI50 [4]: 47.1 µM
- TGI [4]: > 100 µM
- GI50 [6]: 78.6 µM
- TGI [6]: > 100 µM
- GI50 [7]: 41.1 µM
- TGI [7]: > 100 µM
- GI50 [10]: 32.7 µM
- TGI [10]: > 100 µM
- GI50 [8]: 23.1 µM
- TGI [8]: 91.8 µM
